Results: patent US11878970B2, “Allosteric chromenone inhibitors of phosphoinositide 3-kinase (PI3K) for the treatment of disease” (Petra Pharma Corporation, priority 2021, dated 2024)

Assays:
[1] = molecular target: T1, PI3K-α (PIK3CA) wild-type (WT), p110α/p85α complex (Homo sapiens, UniProt P42336); test: PI3K-alpha kinase (PIK3CA) biochemical activity, ADP-Glo, wild-type; details: Soy PI lipid substrate
T1 construct: Recombinant, catalytically active human full length PIK3KA Wild-type and H1047R mutant; 6×His (N); purchased EMD Millipore Sigma 14-602M
Procedure, shortened: (§1)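 ADP formation measured by ADP-Glo luminescence after reaction at 27 °C to about 10% ATP turnover, using 20 uM ATP, 50 uM PIP2diC8 or soy PI lipid, HEPES pH 7.4 with MgCl2. Enzyme (1-5 nM WT or H1047R p110α/p85α) and compound preincubated 1 h first; 10-point 1:3 curves fitted four-parameter for IC50.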

[2] = molecular target: T2, PI3K-α (PIK3CA) H1047R mutant, p110α/p85α complex (Homo sapiens, UniProt P42336, H1047R); test: PI3K-alpha kinase (PIK3CA) biochemical activity, ADP-Glo, H1047R mutant; details: Soy PI lipid substrate
T2 construct: Recombinant, catalytically active human full length PIK3KA Wild-type and H1047R mutant; 6×His (N); purchased EMD Millipore Sigma 14-792M
T2 sequence (P42336 whole entry H1047R): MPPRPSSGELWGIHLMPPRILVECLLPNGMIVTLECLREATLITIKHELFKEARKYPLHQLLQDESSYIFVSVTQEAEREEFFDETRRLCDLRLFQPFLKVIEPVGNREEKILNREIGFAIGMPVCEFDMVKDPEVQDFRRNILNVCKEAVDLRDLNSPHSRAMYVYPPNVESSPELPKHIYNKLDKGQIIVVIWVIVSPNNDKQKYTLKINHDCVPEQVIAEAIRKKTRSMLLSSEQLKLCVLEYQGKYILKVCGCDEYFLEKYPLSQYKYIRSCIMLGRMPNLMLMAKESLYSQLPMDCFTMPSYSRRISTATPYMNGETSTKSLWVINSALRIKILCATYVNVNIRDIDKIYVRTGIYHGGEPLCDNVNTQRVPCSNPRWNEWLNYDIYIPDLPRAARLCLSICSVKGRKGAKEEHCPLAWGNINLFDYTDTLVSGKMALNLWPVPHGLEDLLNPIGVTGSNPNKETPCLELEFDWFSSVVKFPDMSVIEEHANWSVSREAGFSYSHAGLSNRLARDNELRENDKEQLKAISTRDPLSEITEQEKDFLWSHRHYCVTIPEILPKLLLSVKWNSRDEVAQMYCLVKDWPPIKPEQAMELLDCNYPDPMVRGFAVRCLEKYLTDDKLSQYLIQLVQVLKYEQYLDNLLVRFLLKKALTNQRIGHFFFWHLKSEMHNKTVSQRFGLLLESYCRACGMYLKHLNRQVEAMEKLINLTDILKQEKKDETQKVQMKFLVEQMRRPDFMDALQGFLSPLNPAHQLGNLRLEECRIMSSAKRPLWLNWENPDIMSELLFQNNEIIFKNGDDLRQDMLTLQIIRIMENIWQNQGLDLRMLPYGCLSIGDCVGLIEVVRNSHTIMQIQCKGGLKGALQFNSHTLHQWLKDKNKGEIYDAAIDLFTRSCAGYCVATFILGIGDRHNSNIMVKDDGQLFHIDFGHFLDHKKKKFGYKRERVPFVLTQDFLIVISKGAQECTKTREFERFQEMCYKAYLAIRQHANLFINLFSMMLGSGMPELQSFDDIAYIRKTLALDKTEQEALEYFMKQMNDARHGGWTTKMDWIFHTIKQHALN
T2 sequence (P27986 whole entry partner): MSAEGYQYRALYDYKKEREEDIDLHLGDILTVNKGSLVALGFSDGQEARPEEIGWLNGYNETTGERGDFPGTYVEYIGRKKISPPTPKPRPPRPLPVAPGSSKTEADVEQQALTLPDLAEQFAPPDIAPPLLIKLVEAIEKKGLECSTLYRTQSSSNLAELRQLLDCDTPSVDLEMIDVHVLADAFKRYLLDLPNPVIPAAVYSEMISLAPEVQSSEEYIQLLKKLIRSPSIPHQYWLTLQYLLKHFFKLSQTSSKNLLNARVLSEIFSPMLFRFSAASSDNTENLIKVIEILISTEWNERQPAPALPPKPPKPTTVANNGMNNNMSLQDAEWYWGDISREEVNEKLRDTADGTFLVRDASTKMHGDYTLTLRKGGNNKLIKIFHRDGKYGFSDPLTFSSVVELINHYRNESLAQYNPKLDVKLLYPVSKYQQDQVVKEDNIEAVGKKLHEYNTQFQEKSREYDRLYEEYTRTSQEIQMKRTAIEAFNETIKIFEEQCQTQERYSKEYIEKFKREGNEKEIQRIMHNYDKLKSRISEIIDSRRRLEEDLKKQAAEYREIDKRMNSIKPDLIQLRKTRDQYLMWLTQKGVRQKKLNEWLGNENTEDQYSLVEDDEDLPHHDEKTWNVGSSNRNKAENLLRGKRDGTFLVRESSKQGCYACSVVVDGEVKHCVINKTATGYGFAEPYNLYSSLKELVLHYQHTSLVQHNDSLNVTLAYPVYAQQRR
Procedure, shortened: as §1

[3] = molecular target: PI3K-α (PIK3CA) in MDA-MB-453 cells (Homo sapiens, UniProt P42336); test: PI3K-alpha kinase (PIK3CA) in vitro cell based assay, MDA-MB-453 cells, SureFire Ultra AlphaLisa; details: read-out: PI3K-α (PIK3CA) in vitro cell based assay IC50
Sequence of PI3K-α (PIK3CA) in MDA-MB-453 cells (P27986 2-724): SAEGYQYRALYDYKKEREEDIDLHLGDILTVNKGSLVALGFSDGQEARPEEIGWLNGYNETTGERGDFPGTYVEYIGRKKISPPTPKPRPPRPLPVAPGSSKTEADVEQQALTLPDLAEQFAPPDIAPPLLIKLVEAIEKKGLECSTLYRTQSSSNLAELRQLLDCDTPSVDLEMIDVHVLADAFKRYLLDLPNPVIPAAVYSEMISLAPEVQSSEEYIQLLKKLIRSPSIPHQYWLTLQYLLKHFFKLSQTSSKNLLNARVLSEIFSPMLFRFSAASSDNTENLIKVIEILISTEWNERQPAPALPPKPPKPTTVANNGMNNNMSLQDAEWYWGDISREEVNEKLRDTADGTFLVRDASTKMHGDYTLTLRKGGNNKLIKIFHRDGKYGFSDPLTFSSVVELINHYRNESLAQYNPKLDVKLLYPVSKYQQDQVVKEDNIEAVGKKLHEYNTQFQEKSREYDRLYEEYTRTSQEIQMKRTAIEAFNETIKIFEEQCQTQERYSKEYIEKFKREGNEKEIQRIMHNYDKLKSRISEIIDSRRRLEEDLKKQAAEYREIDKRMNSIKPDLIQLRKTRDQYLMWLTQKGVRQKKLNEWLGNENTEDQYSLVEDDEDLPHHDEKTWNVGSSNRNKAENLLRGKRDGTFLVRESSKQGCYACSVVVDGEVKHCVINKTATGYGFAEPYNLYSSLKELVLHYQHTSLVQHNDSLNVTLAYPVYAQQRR
Sequence of PI3K-α (PIK3CA) in MDA-MB-453 cells (P42336 whole entry): as the sequence (P42336 whole entry H1047R) above, with R1047H counted along it
Description: PI3K-Alpha Kinase (PIK3CA) Activity In Vitro Cell Based Assay and Determining IC50 Values for Inhibitors
The MDA-MB-453 (ATCC-HTB-131) cell line was obtained from the American Type Culture Collection (Manassas, VA). Cells were maintained in Dulbecco's Modified Eagle Media (DMEM, Gibco 11965-092) supplemented with 10% Fetal Bovine Serum, heat inactivated (FBS HI, Gibco 10082-147), 1× non-essential amino acids (NEAA, Gibco 11140-050), and 1 mM sodium pyruvate (Gibco 11360-070). Cultures were maintained in a humidified incubator at 37° C. under 5% CO2/95% air.
For compound testing in 0% FBS, MDA-MB-453 cells were seeded at a density of 1.5×10^4 cells per well in white 384-well plates in 20 μl of Minimum Essential Media (MEM) assay media with 1×NEAA, 1 mM sodium pyruvate, and 1 μg/mL human insulin (Sigma I9278). Compounds dissolved in 10 mM stock solutions in DMSO were serially diluted 1:3 in DMSO to generate a 10-point dilution series and plated using an acoustic liquid handler system (Echo 550 Series Liquid Handler, Labcyte). A 5× intermediate compound dilution plate in MEM with 1×NEAA and 1 mM sodium pyruvate (150 μM starting compound concentration in 1.5% DMSO) was then prepared. Five μl of the intermediate serially diluted compounds were added to the cell plate to final concentrations ranging from […] in 0.3% DMSO. 0.3% DMSO alone was used to establish the maximum (MAX) signal and GDC-0032 at a final concentration of 1 μM was used as a reference compound for the minimum (MIN) signal. After 3 hours treatment, the medium was removed, and the cells lysed in 10 μL of 1× SureFire Lysis buffer with shaking for 10 minutes at room temperature. The Acceptor Mix (Reaction Buffer 1+Reaction Buffer 2+Activation Buffer+SureFire Ultra Acceptor Beads) was prepared by diluting Activation buffer 25-fold in combined Reaction Buffer 1 and Reaction Buffer 2. The Acceptor beads were diluted 50-fold in the combined Reaction Buffers. Five μL of Acceptor Mix was added to each well, the plate was sealed and covered with foil and incubated for 1 hour at room temperature. The Donor Mix (dilution buffer+SureFire Ultra Donor Beads) was prepared by diluting Donor Beads 50-fold in dilution buffer. Five μL of the Donor Mix was added to each well and the plate sealed and covered with foil and incubated for 1 hour at room temperature in the dark. The plates were read on a Neo2 plate reader instrument from Biotek using standard AlphaLisa settings. Compounds were tested in duplicate and the average % inhibition at each compound concentration was used to generate a single dose response curve. The data were processed using the Genedata-Screener tool. Relative IC50 values were determined using luminescence units by calculating percent inhibition with respect to the in-plate “MIN” (GDC-0032 reference control) and “MAX” (DMSO) controls. The data was analyzed using a 4-parameter nonlinear logistic equation (four-parameter logistic concentration-response curve): Y=bottom+[(top−bottom)/1+(X/IC50)slope] where Y=% inhibition, X=concentration of inhibitor, bottom=minimum value of y attained by curve-fit, top=maximum value of y attained by curve-fit and slope=steepness of curve at the IC50. % Inhibition=[(signal at X−median Min)/(median Max−median Min)]×100 IC50: concentration of compound that reduces a given response (ligand binding, enzyme response) by 50%. Relative IC50: concentration giving half the compound's maximum response.

| SMILES | IC50 [1] [nM] | IC50 [2] [nM] | IC50 [3] [nM] |
| --- | --- | --- | --- |
| Cc1cc(C(C)Nc2ccccc2C(=O)O)c2oc(-c3ccc4c(c3)OC(F)(F)O4)cc(=O)c2c1 (single isomer, unassigned) [Example 64, 2-[1-[2-(2,2-Difluoro-1,3-benzodioxol-5-yl)-6-methyl-4-oxo-chromen-8-yl]ethylamino]benzoic acid] | 1000 to 5000 | < 500 | < 50 |
| Cc1cc(C(C)Nc2ccccc2C(=O)O)c2oc(-c3ccc4[nH]c(C)nc4c3)cc(=O)c2c1 (single isomer, unassigned) [Example 65, 2-[1-[6-Methyl-2-(2-methyl-1H-benzimidazol-5-yl)-4-oxo-chromen-8-yl]ethylamino]benzoic acid] | 1000 to 5000 | < 500 | 100 to 500 |
| Cc1cc(C(C)Nc2ccccc2C(=O)O)c2oc(-c3cc4ccccc4[nH]3)cc(=O)c2c1 (single isomer, unassigned) [Example 68, 2-[1-[2-(1H-Indol-2-yl)-6-methyl-4-oxo-chromen-8-yl]ethylamino]benzoic acid] | 500 to 1000 | < 500 | < 50 |
| Cc1cc(C(C)Nc2ccccc2C(=O)O)c2oc(-c3ccc4nc(C(F)(F)F)cn4c3)cc(=O)c2c1 (single isomer, unassigned) [Example 70, 2-[1-[6-Methyl-4-oxo-2-[2-(trifluoromethyl)imidazo[1,2-a]pyridin-6-yl]chromen-8-yl]ethylamino]benzoic acid] | 1000 to 5000 | < 500 | 50 to 100 |
| Cc1cc(C(C)Nc2ccccc2C(=O)O)c2oc(-c3cnc4cc[nH]c4c3)cc(=O)c2c1 (single isomer, unassigned) [Example 71, 2-[1-[6-Methyl-4-oxo-2-(1H-pyrrolo[3,2-b]pyridin-6-yl)chromen-8-yl]ethylamino]benzoic acid] | 1000 to 5000 | < 500 | 100 to 500 |
| Cc1cc(C(C)Nc2ccccc2C(=O)O)c2oc(-c3ccc4nc(C)sc4c3)cc(=O)c2c1 (single isomer, unassigned) [Example 74, 2-[1-[6-Methyl-2-(2-methyl-1,3-benzothiazol-6-yl)-4-oxo-chromen-8-yl]ethylamino]benzoic acid] | 500 to 1000 | < 500 | < 50 |
| Cc1cc(C(C)Nc2ccccc2C(=O)O)c2oc(-c3ccc4nn(C)cc4c3)cc(=O)c2c1 (single isomer, unassigned) [Example 75, 2-[1-[6-Methyl-2-(2-methylindazol-5-yl)-4-oxo-chromen-8-yl]ethylamino]benzoic acid] | 500 to 1000 | < 500 | < 50 |
| Cc1cc(C(C)Nc2ccccc2C(=O)O)c2oc(-c3ccc4cnn(C)c4n3)cc(=O)c2c1 (single isomer, unassigned) [Example 82, 2-[1-[6-Methyl-2-(1-methylpyrazolo[3,4-b]pyridin-6-yl)-4-oxo-chromen-8-yl]ethylamino]benzoic acid] | 500 to 1000 | < 500 | 100 to 500 |
| Cc1cc(C(C)Nc2ccccc2C(=O)O)c2oc(-n3ncc4c(F)cccc43)cc(=O)c2c1 (single isomer, unassigned) [Example 86] | 500 to 1000 | < 500 | 50 to 100 |
| Cc1cc(C(C)Nc2ccccc2C(=O)O)c2oc(-n3ncc4c(C)cccc43)cc(=O)c2c1 (single isomer, unassigned) [Example 88, 2-[1-[6-Methyl-2-(4-methylindazol-1-yl)-4-oxo-chromen-8-yl]ethylamino]benzoic acid] | 500 to 1000 | < 500 | 100 to 500 |
| Cc1cc(C(C)Nc2ccccc2C(=O)O)c2oc(-c3ccc4cc[nH]c4c3)c(C)c(=O)c2c1 (single isomer, unassigned) [Example 90, 2-[1-[2-(1H-Indol-6-yl)-3,6-dimethyl-4-oxo-chromen-8-yl]ethylamino]benzoic acid] | 1000 to 5000 | < 500 | < 50 |
| Cc1cc(C(C)Nc2ccccc2C(=O)O)c2oc(-c3ccc4nn(C)cc4c3)c(C)c(=O)c2c1 (single isomer, unassigned) [Example 91, 2-[1-[3,6-Dimethyl-2-(2-methylindazol-5-yl)-4-oxo-chromen-8-yl]ethylamino]benzoic acid] | 500 to 1000 | < 500 | < 50 |
| Cc1cc(C(C)Nc2ccccc2C(=O)O)c2oc(-c3ccc4c(c3)OCO4)c(C)c(=O)c2c1 (single isomer, unassigned) [Example 93, 2-[1-[2-(1,3-Benzodioxol-5-yl)-3,6-dimethyl-4-oxo-chromen-8-yl]ethylamino]benzoic acid] | 500 to 1000 | < 500 | < 50 |
| Cc1cc(C(C)Nc2ccccc2C(=O)O)c2oc(-c3cc(Cl)c4nn(C)cc4c3)cc(=O)c2c1 (single isomer, unassigned) [Example 95, 2-[1-[2-(7-Chloro-2-methyl-indazol-5-yl)-6-methyl-4-oxo-chromen-8-yl]ethylamino]benzoic acid] | 500 to 1000 | < 500 | < 50 |
| Cc1cc(C(C)Nc2ccccc2C(=O)O)c2oc(-c3cc(F)c4nn(C)cc4c3)cc(=O)c2c1 (single isomer, unassigned) [Example 97, 2-[1-[2-(7-Fluoro-2-methyl-indazol-5-yl)-6-methyl-4-oxo-chromen-8-yl]ethylamino]benzoic acid] | 1000 to 5000 | < 500 | < 50 |
| CC(Nc1ccc(Cl)nc1C(=O)O)c1cc(C(F)(F)F)cc2c(=O)cc(-c3ccc4cnn(C)c4c3)oc12 (single isomer, unassigned) [Example 108, 6-Chloro-3-[1-[2-(1-methylindazol-6-yl)-4-oxo-6-(trifluoromethyl)chromen-8-yl]ethylamino]pyridine-2-carboxylic acid] | 500 to 1000 | < 500 | < 50 |
| CC(Nc1ccccc1C(=O)O)c1cc(C(F)(F)F)cc2c(=O)cc(-c3ccc4c(cnn4C)c3)oc12 (single isomer, unassigned) [Example 109, 2-[1-[2-(1-Methylindazol-5-yl)-4-oxo-6-(trifluoromethyl)chromen-8-yl]ethylamino]benzoic acid] | 1000 to 5000 | < 500 | < 50 |
| Cc1cc(C(C)Nc2ccccc2C(=O)O)c2oc(-c3cccc4ocnc34)cc(=O)c2c1 (single isomer, unassigned) [Example 110, 2-[1-[2-(1,3-Benzoxazol-4-yl)-6-methyl-4-oxo-chromen-8-yl]ethylamino]benzoic acid] | 5000 to 10000 | < 500 | < 50 |
| Cc1cc(C(C)Nc2ccccc2C(=O)O)c2oc(-c3cccc4nn(C)cc34)cc(=O)c2c1 (single isomer, unassigned) [Example 111, 2-[1-[6-Methyl-2-(2-methylindazol-4-yl)-4-oxo-chromen-8-yl]ethylamino]benzoic acid] | 500 to 1000 | < 500 | 100 to 500 |
